Read-outs that look alike come from different tables or passages of the source.
Assays:
[1] = tested on: anesthetized, normotensive cats; assay: Hypotensive effect in anesthetized, normotensive cats; format: in vivo, cat; settings: 1 mg/kg id.
Protocol: A tube was inserted in the trachea of cats anesthetized with ip.35 mg/kg of pentobarbital sodium to ensure spontaneous respiration. The femoral artery and vein were both cannulated unilaterally. The vegetative test compounds (adrenaline, isoproterenol) were administered through the venous cannule. The mean arterial blood pressure was measured by joining the arterial cannule to a Statham P23Db pressure transducer and electromanometer. The heart rate was determined by a cardiotachometer triggered by arterial pulse-wave.
Various doses of the test compounds were administered through a cannule inserted into the duodenum.

[2] = tested on: spontaneously hypertensive conscious rats; assay: Antihypertensive effect in spontaneously hypertensive conscious rats ("SH" rats); format: in vivo, rat (Wistar-Okamoto); settings: for change in vivo at 5 mg/kg / change in vivo at 10 mg/kg / change in vivo at 2.5 mg/kg: Rattus norvegicus, po
Protocol: The blood pressure of rats was measured before treatment and hourly after drug administration till the 24th posttreatment hour. The test compounds were administered orally, by gavage.

[3] = tested on: conscious rats with renal hypertension; assay: Antihypertensive effect in rats with renal hypertension ("RH" rats); format: in vivo, rat (CFY male); settings: for Systolic blood pressure, 0 h: 0 h (baseline)
Protocol: The test was performed according to the method of Grollman [Proc. Soc. Exptl. […] The test compounds were administered orally.

[4] = tested on: conscious rats with DOCA-induced hypertension; assay: Antihypertensive effect in rats with DOCA-induced hypertension ("DH" rats); format: in vivo, rat; settings: for Systolic blood pressure, 0 h: 0 h (baseline)
Protocol: The test was performed according to Cunning et al. [J. Pharm. Exp. Ther. 161, 88 (1981)].

[5] = molecular target: T1, potential-mediated calcium channel (Rattus norvegicus, UniProt P22002); assay: Calcium-antagonistic effect on an isolated vessel preparation (portal vein); settings: depolarizing solution (90 mM KCl), CaCl2 2.5 and 5.0 mM, 37° C., pH 7.4, read-out: Inhibition of the potential-mediated calcium channel, IC50
T1 construct: Portal veins were obtained from decapitated male rats; from tissue; host or cells: rat portal vein (longitudinally incised venous segment)
Protocol: Portal veins were obtained from decapitated male rats weighing 300 to 350 g. The longitudinally incised venous segment was suspended in an organ chamber (10 ml) filled with physiological saline solution under resting tension of 1 g. Its upper end was attached to a HSI force-displacement transducer. Isometric contractions were recorded with a Beckman Dynograph.
After the initial equilibration period in a calcium-free Krebs-Ringer bicarbonate solution (KRB) the vein was exposed to a depolarizing solution (calcium-free KRB containing 90 mM of KCl) for 10 minutes. In order to determine the cumulative contractile responses CaCl2 was added in an end-concentration of 2.5 and 5.0 mM, resp. Each medium was oxygenated with carbogen gas and maintained at 37° C. and pH 7.4.
The influence of the test compounds on the contraction was determined by incubating the veins in the depolarizing solution for 10 minutes before and during exposure to Ca^2+. Each vein preparation was subjected to a single concentration of the test compound.
For each experiment the 100% responses were considered as the maximum contractile responses during the control Ca curves. The contractions after exposure to the test compounds were expressed as the percentage of these values.

[6] = molecular target: T2, 1,4-dihydropyridine receptor; assay: Receptor binding studies (displacement of 3H-nitrendipine, heart microsomal preparation); settings: displacement of 50% of 3H-nitrendipine
T2 construct: to the heart microsomal preparation; from tissue; host or cells: heart microsomal preparation

[7] = tested on: PGF2alpha induced uterus contractions (isolated rat uterus); assay: In vitro uterus relaxant activity in the isolated rat uterus (inhibition of PGF2alpha induced contraction); settings: 10^-6 M test compound
Protocol: The test was performed according to the method of Gaddum and Hammeed [Brit. […] The inhibitory activity of 10^-6 M doses of the test compounds on the PGF2alpha induced uterus contractions was determined.

[8] = 10 mg/kg p.o., 2 h, read-out: Systolic blood pressure reduction in %, 2 h
[9] = 10 mg/kg p.o., 5 h, read-out: Systolic blood pressure reduction in %, 5 h
[10] = 10 mg/kg p.o., 24 h, read-out: Systolic blood pressure reduction in %, 24 h

T1 sequence (P22002 whole entry): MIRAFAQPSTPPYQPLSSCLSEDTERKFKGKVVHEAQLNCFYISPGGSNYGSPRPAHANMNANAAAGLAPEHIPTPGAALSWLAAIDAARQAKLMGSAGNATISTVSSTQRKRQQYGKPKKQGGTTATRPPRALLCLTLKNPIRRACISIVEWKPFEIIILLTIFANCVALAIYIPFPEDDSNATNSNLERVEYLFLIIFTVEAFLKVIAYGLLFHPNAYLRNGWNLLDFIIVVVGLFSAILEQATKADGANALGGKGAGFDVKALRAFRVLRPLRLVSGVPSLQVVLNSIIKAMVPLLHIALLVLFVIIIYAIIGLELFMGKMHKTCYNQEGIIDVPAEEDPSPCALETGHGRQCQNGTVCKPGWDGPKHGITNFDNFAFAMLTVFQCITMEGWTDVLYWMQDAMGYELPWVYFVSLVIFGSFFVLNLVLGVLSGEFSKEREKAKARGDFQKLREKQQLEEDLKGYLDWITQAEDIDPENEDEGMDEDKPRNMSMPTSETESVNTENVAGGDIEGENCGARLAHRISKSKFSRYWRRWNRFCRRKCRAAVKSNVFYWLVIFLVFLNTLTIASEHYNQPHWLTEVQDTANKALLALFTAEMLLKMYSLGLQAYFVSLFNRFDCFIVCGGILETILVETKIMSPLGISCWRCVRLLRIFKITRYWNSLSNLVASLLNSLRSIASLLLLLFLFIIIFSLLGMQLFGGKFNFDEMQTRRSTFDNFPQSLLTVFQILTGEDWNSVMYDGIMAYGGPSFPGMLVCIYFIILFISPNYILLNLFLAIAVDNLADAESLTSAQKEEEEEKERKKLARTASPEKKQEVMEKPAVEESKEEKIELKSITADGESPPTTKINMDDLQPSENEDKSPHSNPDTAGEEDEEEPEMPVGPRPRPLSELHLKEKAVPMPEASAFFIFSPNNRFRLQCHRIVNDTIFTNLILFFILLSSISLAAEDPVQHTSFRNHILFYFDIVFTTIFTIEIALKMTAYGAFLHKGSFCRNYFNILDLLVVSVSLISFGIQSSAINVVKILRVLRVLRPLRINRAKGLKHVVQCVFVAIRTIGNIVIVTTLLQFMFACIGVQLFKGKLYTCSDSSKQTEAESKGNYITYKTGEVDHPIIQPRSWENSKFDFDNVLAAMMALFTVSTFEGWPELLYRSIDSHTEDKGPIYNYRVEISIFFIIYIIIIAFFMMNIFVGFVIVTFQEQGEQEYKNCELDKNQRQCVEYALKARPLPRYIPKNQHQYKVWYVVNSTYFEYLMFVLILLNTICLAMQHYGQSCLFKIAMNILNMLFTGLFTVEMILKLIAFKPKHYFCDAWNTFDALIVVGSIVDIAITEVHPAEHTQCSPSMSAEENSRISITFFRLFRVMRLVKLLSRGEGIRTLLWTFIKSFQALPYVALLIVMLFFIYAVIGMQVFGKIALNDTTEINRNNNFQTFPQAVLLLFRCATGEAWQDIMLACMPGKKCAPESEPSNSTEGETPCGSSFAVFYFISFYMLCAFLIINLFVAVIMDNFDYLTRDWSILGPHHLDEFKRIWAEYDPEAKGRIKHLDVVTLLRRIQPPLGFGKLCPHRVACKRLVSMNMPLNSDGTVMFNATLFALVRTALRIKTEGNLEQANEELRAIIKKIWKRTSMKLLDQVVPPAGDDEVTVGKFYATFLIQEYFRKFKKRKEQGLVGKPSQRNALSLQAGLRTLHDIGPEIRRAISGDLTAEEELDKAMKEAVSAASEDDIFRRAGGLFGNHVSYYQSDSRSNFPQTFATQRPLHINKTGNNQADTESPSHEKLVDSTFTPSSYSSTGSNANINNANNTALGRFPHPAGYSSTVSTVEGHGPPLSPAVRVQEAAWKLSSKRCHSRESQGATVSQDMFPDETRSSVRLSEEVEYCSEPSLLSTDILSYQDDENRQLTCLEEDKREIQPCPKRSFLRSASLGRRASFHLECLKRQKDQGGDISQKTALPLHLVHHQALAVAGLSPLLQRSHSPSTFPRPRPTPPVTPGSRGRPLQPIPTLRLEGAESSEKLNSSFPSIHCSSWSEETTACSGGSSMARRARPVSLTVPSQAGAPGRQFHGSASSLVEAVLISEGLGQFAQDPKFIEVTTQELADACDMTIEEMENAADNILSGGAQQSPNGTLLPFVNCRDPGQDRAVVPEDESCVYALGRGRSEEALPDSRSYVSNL
T1 sequence (P54290 25-943 partner limits assumed): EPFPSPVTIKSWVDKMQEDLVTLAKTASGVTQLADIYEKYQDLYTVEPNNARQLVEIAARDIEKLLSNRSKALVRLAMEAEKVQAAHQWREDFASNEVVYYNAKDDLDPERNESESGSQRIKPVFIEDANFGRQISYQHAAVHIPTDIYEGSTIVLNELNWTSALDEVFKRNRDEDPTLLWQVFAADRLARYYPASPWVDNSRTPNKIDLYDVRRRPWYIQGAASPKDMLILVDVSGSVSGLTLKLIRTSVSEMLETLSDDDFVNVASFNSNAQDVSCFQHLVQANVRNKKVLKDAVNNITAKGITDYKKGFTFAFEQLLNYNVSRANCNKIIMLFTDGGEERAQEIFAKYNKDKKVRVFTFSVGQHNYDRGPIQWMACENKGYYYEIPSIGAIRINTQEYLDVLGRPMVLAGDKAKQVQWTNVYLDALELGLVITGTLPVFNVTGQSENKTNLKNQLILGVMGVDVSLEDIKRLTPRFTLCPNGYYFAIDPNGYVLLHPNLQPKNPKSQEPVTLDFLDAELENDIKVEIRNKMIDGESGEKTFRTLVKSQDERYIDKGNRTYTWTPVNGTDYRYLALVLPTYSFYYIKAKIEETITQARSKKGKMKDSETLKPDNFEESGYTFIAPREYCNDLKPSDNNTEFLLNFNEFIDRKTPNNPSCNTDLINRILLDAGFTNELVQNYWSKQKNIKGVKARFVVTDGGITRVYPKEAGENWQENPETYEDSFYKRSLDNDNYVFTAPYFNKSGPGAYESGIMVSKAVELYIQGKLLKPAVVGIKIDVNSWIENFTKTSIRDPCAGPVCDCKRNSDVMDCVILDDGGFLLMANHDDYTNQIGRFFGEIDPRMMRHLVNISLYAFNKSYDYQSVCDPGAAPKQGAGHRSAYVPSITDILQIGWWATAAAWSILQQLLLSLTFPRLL
T1 sequence (P54290 944-1091 partner limits assumed): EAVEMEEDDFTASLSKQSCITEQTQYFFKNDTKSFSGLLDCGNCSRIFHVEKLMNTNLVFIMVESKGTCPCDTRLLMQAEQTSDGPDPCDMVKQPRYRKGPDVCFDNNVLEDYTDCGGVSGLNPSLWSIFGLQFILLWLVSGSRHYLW

## COC(=O)C1=C(C)NC(C)=C(C(=O)OC)C1c1ccccc1NC(=O)c1ccc([N+](=O)[O-])cc1 [Example 7]
[1]
  Mean arterial pressure, 5 min: 115 Hgmm
  Mean arterial pressure, 15 min: 60 Hgmm
  Mean arterial pressure, 30 min: 50 Hgmm
  Mean arterial pressure, 60 min: 60 Hgmm
  Mean arterial pressure, 120 min: 85 Hgmm
[2]; 5 mg/kg p.o., 2 h
  Systolic blood pressure, 2 h: 175.2 Hgmm
[2]; 5 mg/kg p.o., 5 h
  Systolic blood pressure, 5 h: 157.6 Hgmm
[2]; 5 mg/kg p.o., 24 h
  Systolic blood pressure, 24 h: 217.6 Hgmm
[2]; 10 mg/kg p.o., 2 h
  Systolic blood pressure, 2 h: 164.0 Hgmm
[2]; 10 mg/kg p.o., 5 h
  Systolic blood pressure, 5 h: 164.0 Hgmm
[2]; 10 mg/kg p.o., 24 h
  Systolic blood pressure, 24 h: 230.0 Hgmm
[2]; 5 mg/kg p.o., 2 h, read-out: Systolic blood pressure reduction in %, 2 h
  change in vivo at 5 mg/kg: -15%
[2]; 5 mg/kg p.o., 5 h, read-out: Systolic blood pressure reduction in %, 5 h
  change in vivo at 5 mg/kg: -24%
[2]; 5 mg/kg p.o., 24 h, read-out: Systolic blood pressure reduction in %, 24 h
  change in vivo at 5 mg/kg: 5%
[2]; [8]
  change in vivo at 10 mg/kg: -28%
[2]; [9]
  change in vivo at 10 mg/kg: -28%
[2]; [10]
  change in vivo at 10 mg/kg: 1%
[3]; 5 mg/kg p.o.
  Systolic blood pressure, 0 h: 206.6 Hgmm
  Pressure reduction in %, 2 h: -15%
  Systolic blood pressure, 2 h: 177.7 Hgmm
  Pressure reduction in %, 5 h: -13%
  Systolic blood pressure, 5 h: 188.6 Hgmm
  Pressure reduction in %, 24 h: +3%
  Systolic blood pressure, 24 h: 213.3 Hgmm
[3]; 10 mg/kg p.o.
  Systolic blood pressure, 0 h: 198.8 Hgmm
  Pressure reduction in %, 2 h: -31%
  Systolic blood pressure, 2 h: 138.8 Hgmm
  Pressure reduction in %, 5 h: -25%
  Systolic blood pressure, 5 h: 150.0 Hgmm
  Pressure reduction in %, 24 h: +6%
  Systolic blood pressure, 24 h: 212.2 Hgmm
[4]; 5 mg/kg p.o.
  Systolic blood pressure, 0 h: 176.8 Hgmm
  Pressure reduction in %, 2 h: -24%
  Systolic blood pressure, 2 h: 135.7 Hgmm
  Pressure reduction in %, 5 h: -16%
  Systolic blood pressure, 5 h: 149.4 Hgmm
  Pressure reduction in %, 24 h: +2%
  Systolic blood pressure, 24 h: 180.8 Hgmm
[4]; 10 mg/kg p.o.
  Systolic blood pressure, 0 h: 176.2 Hgmm
  Pressure reduction in %, 2 h: -28%
  Systolic blood pressure, 2 h: 126.7 Hgmm
  Pressure reduction in %, 5 h: -17%
  Systolic blood pressure, 5 h: 147.5 Hgmm
  Pressure reduction in %, 24 h: 0%
  Systolic blood pressure, 24 h: 177.5 Hgmm
[5]
  IC50: 0.5 nM
[6]
  IC50: 6.3 ± 0.05 nM

## COC(=O)C1=C(C)NC(C)=C(C(=O)OC)C1c1ccccc1NC(=O)c1ccc(C)cc1 [Example 15]
[1]
  Mean arterial pressure, 5 min: 90 Hgmm
  Mean arterial pressure, 15 min: 65 Hgmm
  Mean arterial pressure, 30 min: 65 Hgmm
  Mean arterial pressure, 60 min: 73 Hgmm
  Mean arterial pressure, 120 min: 90 Hgmm
[2]; 2.5 mg/kg p.o., 2 h
  Systolic blood pressure, 2 h: 141.4 Hgmm
[2]; 2.5 mg/kg p.o., 5 h
  Systolic blood pressure, 5 h: 139.2 Hgmm
[2]; 2.5 mg/kg p.o., 24 h
  Systolic blood pressure, 24 h: 193.8 Hgmm
[2]; 2.5 mg/kg p.o., 2 h, read-out: Systolic blood pressure reduction in %, 2 h
  change in vivo at 2.5 mg/kg: -31%
[2]; 2.5 mg/kg p.o., 5 h, read-out: Systolic blood pressure reduction in %, 5 h
  change in vivo at 2.5 mg/kg: -32%
[2]; 2.5 mg/kg p.o., 24 h, read-out: Systolic blood pressure reduction in %, 24 h
  change in vivo at 2.5 mg/kg: -5%
[5]
  IC50: 3 nM
[6]
  IC50: 15.5 ± 3.5 nM

## COC(=O)C1=C(C)NC(C)=C(C(=O)OC)C1c1ccccc1NC(=O)C(F)(F)F [Example 34, 2,6-Dimethyl-3,5-bis(methoxycarbonyl)-4-(2-trifluoro-acetamidophenyl)-1,4-dihydropyridine]
[7]
  Inhibition of PGF2alpha induced contraction: 98.0%
[1]
  Mean arterial pressure, 5 min: 90 Hgmm
  Mean arterial pressure, 15 min: 60 Hgmm
  Mean arterial pressure, 30 min: 75 Hgmm
  Mean arterial pressure, 60 min: 90 Hgmm
  Mean arterial pressure, 120 min: 105 Hgmm
[2]; 10 mg/kg p.o., 2 h
  Systolic blood pressure, 2 h: 170.0 Hgmm
[2]; 10 mg/kg p.o., 5 h
  Systolic blood pressure, 5 h: 182.0 Hgmm
[2]; 10 mg/kg p.o., 24 h
  Systolic blood pressure, 24 h: 216.0 Hgmm
[2]; [8]
  change in vivo at 10 mg/kg: -25%
[2]; [9]
  change in vivo at 10 mg/kg: -19%
[2]; [10]
  change in vivo at 10 mg/kg: -4%
[3]; 10 mg/kg p.o.
  Systolic blood pressure, 0 h: 198.0 Hgmm
  Pressure reduction in %, 2 h: -28%
  Systolic blood pressure, 2 h: 141.0 Hgmm
  Pressure reduction in %, 5 h: -14%
  Systolic blood pressure, 5 h: 167.0 Hgmm
  Pressure reduction in %, 24 h: 0%
  Systolic blood pressure, 24 h: 199.0 Hgmm
[4]; 5 mg/kg p.o.
  Systolic blood pressure, 0 h: 192.0 Hgmm
  Pressure reduction in %, 2 h: -22%
  Systolic blood pressure, 2 h: 150.0 Hgmm
  Pressure reduction in %, 5 h: -16%
  Systolic blood pressure, 5 h: 163.0 Hgmm
  Pressure reduction in %, 24 h: 0%
  Systolic blood pressure, 24 h: 193.0 Hgmm
[4]; 10 mg/kg p.o.
  Systolic blood pressure, 0 h: 189.0 Hgmm
  Pressure reduction in %, 2 h: -23%
  Systolic blood pressure, 2 h: 146.0 Hgmm
  Pressure reduction in %, 5 h: -30%
  Systolic blood pressure, 5 h: 134.0 Hgmm
  Pressure reduction in %, 24 h: -2%
  Systolic blood pressure, 24 h: 186.0 Hgmm
[5]
  IC50: 2.5 nM
[6]
  IC50: 16 ± 1.6 nM

Source: patent publication US4829076A, “Novel dihydropyridines having calcium antagonistic and antihypertensive activity” (Alkaloida Vegyeszeti Gyar, priority 1986, dated 1989)
